C=CC(=O)NC(C)(C)CS(=O)(=O)O
Details | solubility (mole fraction)
in 1,4-dioxane, 288.15 K | 0.000105
in 1,4-dioxane, 293.15 K | 0.000168
in 1,4-dioxane, 298.15 K | 0.000274
in 1,4-dioxane, 303.15 K | 0.000425
in 1,4-dioxane, 308.15 K | 0.000657
in 1,4-dioxane, 313.15 K | 0.000978
in 1,4-dioxane, 318.15 K | 0.00139
in 1,4-dioxane, 323.15 K | 0.00195
in 1,4-dioxane, 328.15 K | 0.00268
in acetone, 283.15 K | 0.00625
in acetone, 288.15 K | 0.00695
in acetone, 293.15 K | 0.00795
in acetone, 298.15 K | 0.00921
in acetone, 303.15 K | 0.0107
in acetone, 308.15 K | 0.0126
in acetone, 313.15 K | 0.0148
in acetone, 318.15 K | 0.0173
in acetone, 323.15 K | 0.0205
in acetone, 328.15 K | 0.0244
in acetonitrile, 283.15 K | 3.11e-05
in acetonitrile, 288.15 K | 5.19e-05
in acetonitrile, 293.15 K | 9.14e-05
in acetonitrile, 298.15 K | 0.000154
in acetonitrile, 303.15 K | 0.000265
in acetonitrile, 308.15 K | 0.000436
in acetonitrile, 313.15 K | 0.000696
in acetonitrile, 318.15 K | 0.00107
in acetonitrile, 323.15 K | 0.0016
in acetonitrile, 328.15 K | 0.00237
in cyclohexane, 283.15 K | 2.64e-05
in cyclohexane, 288.15 K | 4.73e-05
in cyclohexane, 293.15 K | 7.77e-05
in cyclohexane, 298.15 K | 0.000139
in cyclohexane, 303.15 K | 0.000229
in cyclohexane, 308.15 K | 0.000359
in cyclohexane, 313.15 K | 0.000567
in cyclohexane, 318.15 K | 0.000867
in cyclohexane, 323.15 K | 0.00125
in cyclohexane, 328.15 K | 0.00179
in ethanol, 283.15 K | 0.00721
in ethanol, 288.15 K | 0.00794
in ethanol, 293.15 K | 0.00893
in ethanol, 298.15 K | 0.0102
in ethanol, 303.15 K | 0.0118
in ethanol, 308.15 K | 0.0138
in ethanol, 313.15 K | 0.0161
in ethanol, 318.15 K | 0.0189
in ethanol, 323.15 K | 0.0225
in ethanol, 328.15 K | 0.0264
in ethyl acetate, 283.15 K | 0.00106
in ethyl acetate, 288.15 K | 0.00142
in ethyl acetate, 293.15 K | 0.00198
in ethyl acetate, 298.15 K | 0.00262
in ethyl acetate, 303.15 K | 0.00338
in ethyl acetate, 308.15 K | 0.00431
in ethyl acetate, 313.15 K | 0.00543
in ethyl acetate, 318.15 K | 0.00672
in ethyl acetate, 323.15 K | 0.00829
in ethyl acetate, 328.15 K | 0.0103
in ethylene glycol, 283.15 K | 0.000463
in ethylene glycol, 288.15 K | 0.000687
in ethylene glycol, 293.15 K | 0.00105
in ethylene glycol, 298.15 K | 0.00162
in ethylene glycol, 303.15 K | 0.00237
in ethylene glycol, 308.15 K | 0.00329
in ethylene glycol, 313.15 K | 0.00444
in ethylene glycol, 318.15 K | 0.00583
in ethylene glycol, 323.15 K | 0.00757
in ethylene glycol, 328.15 K | 0.00972
in isobutanol, 283.15 K | 0.00229
in isobutanol, 288.15 K | 0.00267
in isobutanol, 293.15 K | 0.00322
in isobutanol, 298.15 K | 0.00394
in isobutanol, 303.15 K | 0.00485
in isobutanol, 308.15 K | 0.00596
in isobutanol, 313.15 K | 0.00728
in isobutanol, 318.15 K | 0.00885
in isobutanol, 323.15 K | 0.0107
in isobutanol, 328.15 K | 0.0131
in isopropanol, 283.15 K | 0.000208
in isopropanol, 288.15 K | 0.000333
in isopropanol, 293.15 K | 0.00056
in isopropanol, 298.15 K | 0.000882
in isopropanol, 303.15 K | 0.00129
in isopropanol, 308.15 K | 0.00186
in isopropanol, 313.15 K | 0.00266
in isopropanol, 318.15 K | 0.00373
in isopropanol, 323.15 K | 0.00508
in isopropanol, 328.15 K | 0.00671
in methanol, 283.15 K | 0.00916
in methanol, 288.15 K | 0.0103
in methanol, 293.15 K | 0.0117
in methanol, 298.15 K | 0.0138
in methanol, 303.15 K | 0.0163
in methanol, 308.15 K | 0.0193
in methanol, 313.15 K | 0.0227
in methanol, 318.15 K | 0.0268
in methanol, 323.15 K | 0.0322
in methanol, 328.15 K | 0.0383
in n-butanol, 283.15 K | 0.00359
in n-butanol, 288.15 K | 0.00403
in n-butanol, 293.15 K | 0.00468
in n-butanol, 298.15 K | 0.0055
in n-butanol, 303.15 K | 0.00649
in n-butanol, 308.15 K | 0.00773
in n-butanol, 313.15 K | 0.00922
in n-butanol, 318.15 K | 0.011
in n-butanol, 323.15 K | 0.0133
in n-butanol, 328.15 K | 0.0159
in n-heptanol, 283.15 K | 0.00327
in n-heptanol, 288.15 K | 0.00369
in n-heptanol, 293.15 K | 0.00426
in n-heptanol, 298.15 K | 0.00496
in n-heptanol, 303.15 K | 0.00582
in n-heptanol, 308.15 K | 0.0069
in n-heptanol, 313.15 K | 0.00824
in n-heptanol, 318.15 K | 0.00987
in n-heptanol, 323.15 K | 0.0118
in n-heptanol, 328.15 K | 0.0145
in n-propanol, 283.15 K | 0.00399
in n-propanol, 288.15 K | 0.00463
in n-propanol, 293.15 K | 0.00542
in n-propanol, 298.15 K | 0.00646
in n-propanol, 303.15 K | 0.00764
in n-propanol, 308.15 K | 0.0091
in n-propanol, 313.15 K | 0.0108
in n-propanol, 318.15 K | 0.0129
in n-propanol, 325.15 K | 0.0158
in n-propanol, 328.15 K | 0.0188

Source: BigSolDB 2.1
